Laboratory results as given in ChEMBL document CHEMBL5321218, “Bifunctional degraders of cyclin dependent kinase 9 (CDK9): Probing the relationship between linker length, properties, and selective protein degradation” (Eur J Med Chem, 2023).
The source made the active and inactive calls. The calls are words filed in the database; no cut-off is given here.

What was measured:
MOLM-13 [1] = test: Anticancer activity against human MOLM-13 cells assessed as cell growth inhibition measured after 48 hrs by MTS assay; type: functional, cell-based; conditions: MOLM-13, 48 h
[2] = target: T1, Protein cereblon/Cyclin-dependent kinase 9 (Homo sapiens, UniProt P50750+Q96SW2); test: Protac activity at CRBN/CDK9 in human MV4-11 cells assessed as protein degradation at 1 uM measured after 6 hrs in presence of […] by Western blot analysis; type: cell-based
Target sequence in this assay (P50750 whole entry, looked up): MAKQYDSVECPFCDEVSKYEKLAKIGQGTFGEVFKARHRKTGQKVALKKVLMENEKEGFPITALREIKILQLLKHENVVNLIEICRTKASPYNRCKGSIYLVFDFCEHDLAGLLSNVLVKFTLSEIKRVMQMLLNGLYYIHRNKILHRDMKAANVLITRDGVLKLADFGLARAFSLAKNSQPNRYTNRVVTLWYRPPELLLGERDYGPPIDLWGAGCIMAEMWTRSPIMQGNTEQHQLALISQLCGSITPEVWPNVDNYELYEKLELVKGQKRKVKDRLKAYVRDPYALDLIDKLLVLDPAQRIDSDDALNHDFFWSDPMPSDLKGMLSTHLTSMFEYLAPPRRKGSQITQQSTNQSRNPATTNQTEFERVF
Target sequence in this assay (Q96SW2 whole entry, looked up): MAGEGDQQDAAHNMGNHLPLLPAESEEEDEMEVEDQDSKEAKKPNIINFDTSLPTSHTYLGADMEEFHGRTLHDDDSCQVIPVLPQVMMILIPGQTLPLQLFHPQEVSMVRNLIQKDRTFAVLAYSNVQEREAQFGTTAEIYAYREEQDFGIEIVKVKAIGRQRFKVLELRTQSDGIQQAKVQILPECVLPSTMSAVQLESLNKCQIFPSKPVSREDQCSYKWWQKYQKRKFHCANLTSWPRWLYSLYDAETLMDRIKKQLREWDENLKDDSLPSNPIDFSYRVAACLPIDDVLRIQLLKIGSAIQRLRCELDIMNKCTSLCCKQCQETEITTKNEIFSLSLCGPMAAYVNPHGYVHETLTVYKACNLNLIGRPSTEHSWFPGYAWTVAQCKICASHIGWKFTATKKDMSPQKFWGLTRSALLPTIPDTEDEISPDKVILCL

[3] = target: T1, Protein cereblon/Cyclin-dependent kinase 9; test: Protac activity at CRBN/CDK9 in human MV4-11 cells assessed as reduction in MCL-1 level upto 5 uM measured after 6 hrs by Western blot analysis; type: cell-based
Target sequence in this assay (P50750 whole entry, looked up): as the sequence (P50750 whole entry, looked up) above
Target sequence in this assay (Q96SW2 whole entry, looked up): as the sequence (Q96SW2 whole entry, looked up) above

B-lymphocyte = test: Induction of CDK2 degradation in B-lymphocyte (unknown origin); type: cell-based
[4] = target: T1, Protein cereblon/Cyclin-dependent kinase 9; test: Protac activity at CRBN/CDK9 in human MV4-11 cells assessed as protein degradation at 1 uM measured after 6 hrs in presence of pomalidomide by Western blot analysis; type: cell-based
Target sequence in this assay (P50750 whole entry, looked up): as the sequence (P50750 whole entry, looked up) above
Target sequence in this assay (Q96SW2 whole entry, looked up): as the sequence (Q96SW2 whole entry, looked up) above

[5] = target: T1, Protein cereblon/Cyclin-dependent kinase 9; test: Protac activity at CRBN/CDK9 in human MV4-11 cells assessed as protein degradation at 1 uM treated for 6 hrs followed by compound washout measured after 24 hrs by Western blot analysis; type: cell-based
Target sequence in this assay (P50750 whole entry, looked up): as the sequence (P50750 whole entry, looked up) above
Target sequence in this assay (Q96SW2 whole entry, looked up): as the sequence (Q96SW2 whole entry, looked up) above

[6] = target: T1, Protein cereblon/Cyclin-dependent kinase 9; test: Protac activity at CRBN/CDK9 isoform 55 in human MOLM-13 cells assessed assessed as protein degradation measured after 6 hrs by Western blot analysis relative to control; type: cell-based
Target sequence in this assay (P50750 whole entry, looked up): as the sequence (P50750 whole entry, looked up) above
Target sequence in this assay (Q96SW2 whole entry, looked up): as the sequence (Q96SW2 whole entry, looked up) above

MV4-11 = test: Anticancer activity against human MV4-11 cells assessed as cell growth inhibition for 6 hrs followed by compound washout measured after 24 hrs by Annexin V/Propidium iodide staining based flow cytometric analysis; type: functional
[7] = target: T1, Protein cereblon/Cyclin-dependent kinase 9; test: Protac activity at CRBN/CDK9 in human MV4-11 cells assessed as protein degradation at 1 uM measured after 6 hrs in presence of bortezomib by Western blot analysis; type: cell-based
Target sequence in this assay (P50750 whole entry, looked up): as the sequence (P50750 whole entry, looked up) above
Target sequence in this assay (Q96SW2 whole entry, looked up): as the sequence (Q96SW2 whole entry, looked up) above

[8] = target: T1, Protein cereblon/Cyclin-dependent kinase 9; test: Protac activity at CRBN/CDK9 in human MV4-11 cells assessed as CDK9 degradation at 1 uM measured after 6 hrs by Western blot analysis; type: cell-based
T-lymphocyte = test: Induction of CDK2 degradation in T-lymphocyte (unknown origin); type: cell-based
MOLM-13 [9] = test: Effect on ikaros expression in human MOLM-13 cells upto 5 uM measured after 6 hrs by Western blot analysis; type: functional, cell-based
[10] = target: T1, Protein cereblon/Cyclin-dependent kinase 9; test: Protac activity at CRBN/CDK9 isoform 42 in human MOLM-13 cells assessed assessed as protein degradation measured after 6 hrs by Western blot analysis relative to control; type: cell-based
[11] = target: T1, Protein cereblon/Cyclin-dependent kinase 9; test: Protac activity at CRBN/CDK9 in human MV4-11 cells assessed as protein degradation at 1 uM treated for 6 hrs followed by compound washout measured after 48 hrs by Western blot analysis; type: cell-based
MOLM-13 [12] = test: Effect on aiolos expression in human MOLM-13 cells upto 5 uM measured after 6 hrs by Western blot analysis; type: functional, cell-based
[13] = target: T1, Protein cereblon/Cyclin-dependent kinase 9; test: Protac activity at CRBN/CDK9 in human MV4-11 cells assessed as reduction in MCL-1 level at 1 uM measured after 6 hrs by Western blot analysis; type: cell-based
[14] = target: T1, Protein cereblon/Cyclin-dependent kinase 9; test: Protac activity at CRBN/CDK9 in human MV4-11 cells assessed as protein degradation at 1 uM measured after 6 hrs in presence of carfilzomib by Western blot analysis; type: cell-based
[15] = target: T1, Protein cereblon/Cyclin-dependent kinase 9; test: Protac activity at CRBN/CDK9 isoform 42 in human MOLM-13 cells assessed assessed as protein degradation measured after 6 hrs by Western blot analysis; type: cell-based
Target sequence in this assay (P50750 whole entry): as the sequence (P50750 whole entry, looked up) above
Target sequence in this assay (Q96SW2 whole entry): as the sequence (Q96SW2 whole entry, looked up) above

[16] = target: T1, Protein cereblon/Cyclin-dependent kinase 9; test: Protac activity at CRBN/CDK9 isoform 55 in human MOLM-13 cells assessed assessed as protein degradation measured after 6 hrs by Western blot analysis; type: cell-based
Target sequence in this assay (P50750 whole entry): as the sequence (P50750 whole entry, looked up) above
Target sequence in this assay (Q96SW2 whole entry): as the sequence (Q96SW2 whole entry, looked up) above

[17] = target: Cyclin-dependent kinase 9 (Homo sapiens) (UniProt P50750); test: Induction of CDK9 degradation in human MOLM-13 cells assessed as fold change measured after 6 hrs by proteomics analysis; type: cell-based
Sequence of Cyclin-dependent kinase 9 (Homo sapiens) (P50750 whole entry): as the sequence (P50750 whole entry, looked up) above

[18] = target: T1, Protein cereblon/Cyclin-dependent kinase 9; test: Protac activity at CRBN/CDK9 in human MV4-11 cells assessed as CDK9 degradation at 5 uM measured after 6 hrs by Western blot analysis; type: cell-based
[19] = target: T1, Protein cereblon/Cyclin-dependent kinase 9; test: Protac activity at CRBN/CDK9 in human MV4-11 cells assessed as CDK9 degradation at 0.01 to 5 uM measured after 6 hrs by Western blot analysis; type: cell-based; conditions: dose 0.01-5 µM
[20] = target: T1, Protein cereblon/Cyclin-dependent kinase 9; test: Protac activity at CRBN/CDK9 in human MV4-11 cells assessed as reduction in c-Myc level upto 5 uM measured after 6 hrs by Western blot analysis; type: cell-based
MOLM-13 [21] = test: Effect on ikaros expression in human MOLM-13 cells at 0.1 uM measured after 6 hrs by Western blot analysis; type: functional, cell-based

## O=C(CCCCCCCCNC(=O)CNc1cccc2c1C(=O)N(C1CCC(=O)NC1=O)C2=O)NCCCCCCCCC(=O)N1CCC(NC(=O)c2n[nH]cc2NC(=O)c2c(Cl)cccc2Cl)CC1 (stereo not given)
MOLM-13 [1]
  IC50: 1.4 µM

## O=C(COc1cccc2c1C(=O)N(C1CCC(=O)NC1=O)C2=O)NCCCCCCCCCCC(=O)N1CCC(NC(=O)c2n[nH]cc2NC(=O)c2c(Cl)cccc2Cl)CC1 (stereo not given)
[2]
  Activity: inactive
[3]
  Activity: Active
B-lymphocyte
  Activity: Active
[4]
  Activity: inactive
[5]
  Activity: Active
[6]
  Emax: 91.6%
MV4-11
  EC50: 0.4 µM
[7]
  Activity: inactive
[8]
  Activity: Active
T-lymphocyte
  Activity: Active
MOLM-13 [9]
  Activity: inactive
[10]
  Emax: 93.1%
[11]
  Activity: inactive
MOLM-13 [12]
  Activity: inactive
[13]
  Activity: Active
[14]
  Activity: inactive
[15]
  DC50: 0.1 µM
MOLM-13 [1]
  IC50: 0.04 µM
[16]
  DC50: 0.14 µM
[17]
  fold change (FC): > 2

## O=C(COc1cccc2c1C(=O)N(C1CCC(=O)NC1=O)C2=O)NCCC(=O)Nc1cccc(C(=O)NCCC(=O)N2CCC(NC(=O)c3n[nH]cc3NC(=O)c3c(Cl)cccc3Cl)CC2)c1 (stereo not given)
[18]
  Activity: inactive

## O=C(CCCCCNC(=O)COc1cccc2c1C(=O)N(C1CCC(=O)NC1=O)C2=O)NCCCCCC(=O)N1CCC(NC(=O)c2n[nH]cc2NC(=O)c2c(Cl)cccc2Cl)CC1 (stereo not given)
MOLM-13 [1]
  IC50: 11.7 µM

## O=C(CCCCNC(=O)CNc1cccc2c1C(=O)N(C1CCC(=O)NC1=O)C2=O)NCCCCC(=O)N1CCC(NC(=O)c2n[nH]cc2NC(=O)c2c(Cl)cccc2Cl)CC1 (stereo not given)
[19]
  Activity: inactive
MOLM-13 [1]
  IC50: 29.7 µM

## O=C(CCNC(=O)CNc1cccc2c1C(=O)N(C1CCC(=O)NC1=O)C2=O)NCCC(=O)NCCC(=O)N1CCC(NC(=O)c2n[nH]cc2NC(=O)c2c(Cl)cccc2Cl)CC1 (stereo not given)
[18]
  Activity: inactive

## O=C(CCCCCCCCCNC(=O)COc1cccc2c1C(=O)N(C1CCC(=O)NC1=O)C2=O)NCCCCCCCCCC(=O)N1CCC(NC(=O)c2n[nH]cc2NC(=O)c2c(Cl)cccc2Cl)CC1 (stereo not given)
MOLM-13 [1]
  IC50: 2.22 µM

## O=C(COc1cccc2c1C(=O)N(C1CCC(=O)NC1=O)C2=O)NCCCCCCCCCCCC(=O)N1CCC(NC(=O)c2n[nH]cc2NC(=O)c2c(Cl)cccc2Cl)CC1 (stereo not given)
[8]
  Activity: Active
[13]
  Activity: Active
MOLM-13 [1]
  IC50: 0.12 µM

## O=C(NC1CCNCC1)c1n[nH]cc1NC(=O)c1c(Cl)cccc1Cl
MV4-11
  EC50: 1.1 µM

## O=C(CCCCCCNC(=O)CNc1cccc2c1C(=O)N(C1CCC(=O)NC1=O)C2=O)NCCCCCCC(=O)N1CCC(NC(=O)c2n[nH]cc2NC(=O)c2c(Cl)cccc2Cl)CC1 (stereo not given)
MOLM-13 [1]
  IC50: 6.96 µM

## O=C(COc1cccc2c1C(=O)N(C1CCC(=O)NC1=O)C2=O)NCCOCCOCCOCC(=O)N1CCC(NC(=O)c2n[nH]cc2NC(=O)c2c(Cl)cccc2Cl)CC1 (stereo not given)
MOLM-13 [1]
  IC50: 92.2 µM

## O=C(CCCCCCCCCNC(=O)CNc1cccc2c1C(=O)N(C1CCC(=O)NC1=O)C2=O)NCCCCCCCCCC(=O)N1CCC(NC(=O)c2n[nH]cc2NC(=O)c2c(Cl)cccc2Cl)CC1 (stereo not given)
MOLM-13 [1]
  IC50: 9.43 µM

## O=C1CCC(N2C(=O)c3cccc(OCC(=O)N4CCC(NC(=O)c5n[nH]cc5NC(=O)c5c(Cl)cccc5Cl)CC4)c3C2=O)C(=O)N1 (stereo not given)
[8]
  Activity: inactive
MOLM-13 [1]
  IC50: 6.62 µM

## O=C(CCCCCCCNC(=O)COc1cccc2c1C(=O)N(C1CCC(=O)NC1=O)C2=O)NCCCCCCCC(=O)N1CCC(NC(=O)c2n[nH]cc2NC(=O)c2c(Cl)cccc2Cl)CC1 (stereo not given)
MOLM-13 [1]
  IC50: 2.39 µM

## O=C(CCCCNC(=O)COc1cccc2c1C(=O)N(C1CCC(=O)NC1=O)C2=O)NCCCCC(=O)N1CCC(NC(=O)c2n[nH]cc2NC(=O)c2c(Cl)cccc2Cl)CC1 (stereo not given)
[19]
  Activity: inactive
MOLM-13 [1]
  IC50: 47.4 µM

## O=C(CNc1cccc2c1C(=O)N(C1CCC(=O)NC1=O)C2=O)NCCCCCCCCCCC(=O)N1CCC(NC(=O)c2n[nH]cc2NC(=O)c2c(Cl)cccc2Cl)CC1 (stereo not given)
[6]
  Emax: 91.6%
MV4-11
  EC50: 0.2 µM
[20]
  Activity: Active
[8]
  Activity: Active
[10]
  Emax: 93.1%
MOLM-13 [21]
  Activity: inactive
[15]
  DC50: 0.03 µM
MOLM-13 [1]
  IC50: 42.1 µM
[16]
  DC50: 0.05 µM

## O=C(COc1cccc2c1C(=O)N(C1CCC(=O)NC1=O)C2=O)NCCC(=O)N1CCC(NC(=O)c2n[nH]cc2NC(=O)c2c(Cl)cccc2Cl)CC1 (stereo not given)
[8]
  Activity: inactive
MOLM-13 [1]
  IC50: 39.7 µM

## O=C(COc1cccc2c1C(=O)N(C1CCC(=O)NC1=O)C2=O)NCCCCCCCC(=O)N1CCC(NC(=O)c2n[nH]cc2NC(=O)c2c(Cl)cccc2Cl)CC1 (stereo not given)
[8]
  Activity: Active
[13]
  Activity: Active
MOLM-13 [1]
  IC50: 0.21 µM

## O=C(CCCCCCCCCCNC(=O)CNc1cccc2c1C(=O)N(C1CCC(=O)NC1=O)C2=O)NCCCCCCCCCCC(=O)N1CCC(NC(=O)c2n[nH]cc2NC(=O)c2c(Cl)cccc2Cl)CC1 (stereo not given)
MOLM-13 [1]
  IC50: 28.4 µM

## O=C(COc1cccc2c1C(=O)N(C1CCC(=O)NC1=O)C2=O)NCCCCC(=O)N1CCC(NC(=O)c2n[nH]cc2NC(=O)c2c(Cl)cccc2Cl)CC1 (stereo not given)
MOLM-13 [1]
  IC50: 43.6 µM

## O=C(CCCCCCNC(=O)COc1cccc2c1C(=O)N(C1CCC(=O)NC1=O)C2=O)NCCCCCCC(=O)N1CCC(NC(=O)c2n[nH]cc2NC(=O)c2c(Cl)cccc2Cl)CC1 (stereo not given)
MOLM-13 [1]
  IC50: 6.27 µM

## O=C(CCCCCCCCCCNC(=O)COc1cccc2c1C(=O)N(C1CCC(=O)NC1=O)C2=O)NCCCCCCCCCCC(=O)N1CCC(NC(=O)c2n[nH]cc2NC(=O)c2c(Cl)cccc2Cl)CC1 (stereo not given)
MOLM-13 [1]
  IC50: 22.2 µM

## O=C(CCCCCCCCNC(=O)COc1cccc2c1C(=O)N(C1CCC(=O)NC1=O)C2=O)NCCCCCCCCC(=O)N1CCC(NC(=O)c2n[nH]cc2NC(=O)c2c(Cl)cccc2Cl)CC1 (stereo not given)
MOLM-13 [1]
  IC50: 0.82 µM

## O=C(CCCCCNC(=O)CNc1cccc2c1C(=O)N(C1CCC(=O)NC1=O)C2=O)NCCCCCC(=O)N1CCC(NC(=O)c2n[nH]cc2NC(=O)c2c(Cl)cccc2Cl)CC1 (stereo not given)
MOLM-13 [1]
  IC50: 13 µM

## O=C(CCCCCCCNC(=O)CNc1cccc2c1C(=O)N(C1CCC(=O)NC1=O)C2=O)NCCCCCCCC(=O)N1CCC(NC(=O)c2n[nH]cc2NC(=O)c2c(Cl)cccc2Cl)CC1 (stereo not given)
MOLM-13 [1]
  IC50: 3.01 µM

## O=C(CCCCCCCCCCCNC(=O)COc1cccc2c1C(=O)N(C1CCC(=O)NC1=O)C2=O)NCCCCCCCCCCCC(=O)N1CCC(NC(=O)c2n[nH]cc2NC(=O)c2c(Cl)cccc2Cl)CC1 (stereo not given)
MOLM-13 [1]
  IC50: 83.2 µM

## O=C(COc1cccc2c1C(=O)N(C1CCC(=O)NC1=O)C2=O)NCCCCCC(=O)N1CCC(NC(=O)c2n[nH]cc2NC(=O)c2c(Cl)cccc2Cl)CC1 (stereo not given)
MOLM-13 [1]
  IC50: 2.7 µM

## O=C1CCC(N2C(=O)c3cccc(NCC(=O)N4CCC(NC(=O)c5n[nH]cc5NC(=O)c5c(Cl)cccc5Cl)CC4)c3C2=O)C(=O)N1 (stereo not given)
[8]
  Activity: inactive
[13]
  Activity: inactive
MOLM-13 [1]
  IC50: 774 µM
